Data reported in US7141249B2, “Rapidly soluble drug composition” (Dainippon Sumitomo Pharma Co., Ltd., priority 1997, dated 2006).

Legend:
[1] = Acidity (pKa) of AS-3201; type: physicochemical
[2] = biological target: aldose reductase (Homo sapiens, UniProt P15121); details: disclosed in earlier patents (U.S. Pat. No. 5,258,382, JP-A-6-192222, JP-A-8-176105); cited from earlier work
[3] = Plasma concentration after administration; type: in vivo; details: among the individuals to be administered
[4] = Water-solubility of AS-3201; type: physicochemical; details: in the range of low pH
Description: The “micronized AS-3201” means powders of AS-3201 having a mean particle size of less than about 20 μm. The “mean particle size” means a particle size of being at 50% in cumulative particle distribution on weight or volume basis (ref., HA Lieberman et al., “Pharmaceutical Dosage Forms: Tablets”, Marcel Dekker, Inc., New York, 1990, vol. 2, 174–186; Kouichi IINOYA (edit.) “Handbook of Powder and Particle Measurement (in Japanese)”, The NIKKAN KOGYO SHINBUN LTD., 1981, 29–36). The “dissolution test” means a test in which the dissolution of AS-3201 from test pharmaceutical compositions in an amount corresponding to 20 mg of AS-3201 is evaluated according to Paddle method (50 rpm) specified in the Twelfth Edition of the Pharmacopoeia of Japan, using a 0.2 M phosphate buffer (pH 6.5, 900 ml) as a test solution, and assaying AS-3201 by spectrophotometry at 300 nm. The “pKa1” means an acid dissociation exponent of an acidic substance at 25° C. in an infinitely diluted solution thereof. When an acidic substance is a polybasic acid, it means an acid dissociation exponent at the first step of dissociation. The “water-solubility” means a maximum amount of a solute being dissolved in 100 ml of water. The term “about” is used with the intention of including values following said term.

Structure (SMILES): O=C1C[C@@]2(C(=O)N1)C(=O)N(Cc1ccc(Br)cc1F)C(=O)c1cccn12 [AS-3201, (R)-2-(4-bromo-2-fluorobenzyl)-1,2,3,4-tetrahydropyrrolo[1,2-a]pyrazine-4-spiro-3′-pyrrolidine-1,2′,3,5′-tetrone]
- pKa [1]: 5.6 to 5.8
- aldose reductase inhibitory activity [2]: potent
- plasma concentration of AS-3201 (variation among individuals) [3]: varies widely
- water-solubility [4]: several
